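Values below derive from 48-hour exposures of cells grown in 96-well plates, with endpoints linearly interpolated between the two concentrations bracketing the appropriate inhibition level. At the GI50, growth is halved.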 The source made the active and inactive calls. No stated cut-off is given here; in the data, active = GI50 up to about 1.1 µM and inactive = higher.
Columns and labels:
Experiment in all cases: inhibition of tumour cell growth, NCI panel, 48 h
786-0 = test system: 786-0
A549 = test system: A549
CCRF-CEM = test system: CCRF-CEM
DLD-1 = test system: DLD-1
HCT-15 = test system: HCT-15
HOP-92 = test system: HOP-92
LXFL 529 = test system: LXFL 529
M14 = test system: M14
Malme-3M = test system: Malme-3M
NCI-H23 = test system: NCI-H23
NCI-H460 = test system: NCI-H460
NCI-H522 = test system: NCI-H522
RXF 393 = test system: RXF 393
SK-MEL-2 = test system: SK-MEL-2
SK-OV-3 = test system: SK-OV-3
SW-620 = test system: SW-620
TK-10 = test system: TK-10

SMILES	GI50 (786-0)	GI50 (A549)	GI50 (CCRF-CEM)	GI50 (DLD-1)	GI50 (HCT-15) [µM]	GI50 (HOP-92)	GI50 (LXFL 529)	GI50 (M14)	GI50 (Malme-3M)	GI50 (NCI-H23)	GI50 (NCI-H460)	GI50 (NCI-H522)	GI50 (RXF 393)	GI50 (SK-MEL-2)	GI50 (SK-OV-3)	GI50 (SW-620)	GI50 (TK-10)
O=c1c(-c2ccccc2)c2oc(c1-c1ccccc1)CSCc1cccc(c1)CSC2	27.5 µM (inactive)	38.5 µM (inactive)	80 µM (inactive)	54.7 µM (inactive)	> 100	34.3 µM (inactive)	39 µM (inactive)	> 100 µM (inactive)	45.5 µM (inactive)	> 100 µM (inactive)	38.7 µM (inactive)	39.6 µM (inactive)	14.5 µM (inactive)	> 100 µM (inactive)	25.1 µM (inactive)	30.3 µM (inactive)	87.1 µM (inactive)
C[n+]1c2ccccc2c(CNCC(=O)O)c2ccccc21	1.17 µM (inactive)	3.76 µM (inactive)	–	0.659 µM (active)	0.805	0.929 µM (active)	1.07 µM (active)	3.97 µM (inactive)	11.9 µM (inactive)	6.95 µM (inactive)	3.76 µM (inactive)	0.137 µM (active)	2.38 µM (inactive)	2.43 µM (inactive)	4.74 µM (inactive)	0.571 µM (active)	0.708 µM (active)
CCOC(=O)[C@H]1Nc2ccc(O)cc2C2c3ccccc3CC21 (some centres undefined)	77.8 µM (inactive)	65.3 µM (inactive)	–	70.8 µM (inactive)	72.8	–	42.6 µM (inactive)	59.7 µM (inactive)	> 100 µM (inactive)	53.7 µM (inactive)	> 100 µM (inactive)	61.7 µM (inactive)	17.7 µM (inactive)	> 100 µM (inactive)	–	> 100 µM (inactive)	> 100 µM (inactive)
COc1cccc(C2C(C(=O)Nc3cc(=O)n(C)c(=O)n3C)=C(C)NC(C)=C2C(=O)Nc2cc(=O)n(C)c(=O)n2C)c1O	> 100 µM (inactive)	> 100 µM (inactive)	86.7 µM (inactive)	> 100 µM (inactive)	–	> 100 µM (inactive)	> 100 µM (inactive)	> 100 µM (inactive)	> 100 µM (inactive)	> 100 µM (inactive)	> 100 µM (inactive)	> 100 µM (inactive)	> 100 µM (inactive)	> 100 µM (inactive)	> 100 µM (inactive)	> 100 µM (inactive)	> 100 µM (inactive)
Cc1ccc(S(=O)(=O)C2CC2(Cl)Cl)cc1 (centres undefined)	20.7 µM (inactive)	> 100 µM (inactive)	11.1 µM (inactive)	24.2 µM (inactive)	23.4	26 µM (inactive)	18.9 µM (inactive)	14.7 µM (inactive)	19.6 µM (inactive)	24.7 µM (inactive)	50.1 µM (inactive)	12.5 µM (inactive)	15.1 µM (inactive)	33.2 µM (inactive)	> 100 µM (inactive)	22.3 µM (inactive)	> 100 µM (inactive)
CCOc1ccc(NC(=O)CC2C(=O)Nc3ccccc3[S+]2[O-])cc1 (centres undefined)	49.1 µM (inactive)	> 94 µM (inactive)	> 100 µM (inactive)	> 100 µM (inactive)	> 100	23.4 µM (inactive)	> 80 µM (inactive)	> 100 µM (inactive)	98.2 µM (inactive)	> 76.6 µM (inactive)	> 80.4 µM (inactive)	> 100 µM (inactive)	37.8 µM (inactive)	> 100 µM (inactive)	> 100 µM (inactive)	> 76.6 µM (inactive)	> 71.4 µM (inactive)
Cc1ccc(S(=O)(=O)NC2(C=O)CCC(C(C)(C)C)CC2)cc1 (centres undefined)	37.9 µM (inactive)	35.1 µM (inactive)	–	35.2 µM (inactive)	32.6	30.7 µM (inactive)	> 100 µM (inactive)	71 µM (inactive)	35.2 µM (inactive)	31.2 µM (inactive)	32.3 µM (inactive)	24.3 µM (inactive)	27.3 µM (inactive)	44.6 µM (inactive)	> 100 µM (inactive)	70.3 µM (inactive)	33.8 µM (inactive)
C[Si](C)(c1ccccc1)C1CC(=O)CC(=O)C1	21.4 µM (inactive)	> 100 µM (inactive)	38.4 µM (inactive)	> 100 µM (inactive)	> 100	–	> 100 µM (inactive)	> 100 µM (inactive)	> 100 µM (inactive)	> 100 µM (inactive)	> 100 µM (inactive)	26.1 µM (inactive)	37.3 µM (inactive)	> 100 µM (inactive)	> 100 µM (inactive)	> 100 µM (inactive)	> 100 µM (inactive)
C[N+](C)(C)CC(=O)N/N=C(/C=C/c1ccccc1)CC1OC(=O)c2ccccc21 (centres undefined)	> 100 µM (inactive)	> 100 µM (inactive)	> 100 µM (inactive)	> 100 µM (inactive)	> 100	> 10 µM (inactive)	> 100 µM (inactive)	> 100 µM (inactive)	> 100 µM (inactive)	> 10 µM (inactive)	> 100 µM (inactive)	> 100 µM (inactive)	> 100 µM (inactive)	> 100 µM (inactive)	> 100 µM (inactive)	> 100 µM (inactive)	> 100 µM (inactive)
O=c1[nH]cc(F)c(=O)n1C1OC(CO)C(O)C1O (centres undefined)	> 100 µM (inactive)	> 100 µM (inactive)	> 100 µM (inactive)	> 100 µM (inactive)	> 100	> 100 µM (inactive)	> 100 µM (inactive)	> 100 µM (inactive)	> 100 µM (inactive)	> 100 µM (inactive)	> 100 µM (inactive)	> 100 µM (inactive)	> 100 µM (inactive)	> 100 µM (inactive)	> 100 µM (inactive)	> 100 µM (inactive)	> 100 µM (inactive)
CCOc1ccc2c(c1)[n+]([O-])c(C(N)=O)c(N)[n+]2[O-]	> 100 µM (inactive)	> 100 µM (inactive)	94 µM (inactive)	> 100 µM (inactive)	–	> 100 µM (inactive)	> 100 µM (inactive)	> 100 µM (inactive)	> 100 µM (inactive)	> 100 µM (inactive)	> 100 µM (inactive)	> 100 µM (inactive)	> 100 µM (inactive)	> 100 µM (inactive)	> 100 µM (inactive)	> 100 µM (inactive)	–
O=C(O)/C(Cl)=C(\Cl)Nc1cccc(C(F)(F)F)c1	> 100 µM (inactive)	> 100 µM (inactive)	> 100 µM (inactive)	> 100 µM (inactive)	> 100	9.2 µM (inactive)	> 100 µM (inactive)	18 µM (inactive)	> 100 µM (inactive)	> 100 µM (inactive)	> 100 µM (inactive)	–	> 100 µM (inactive)	–	> 100 µM (inactive)	> 100 µM (inactive)	> 100 µM (inactive)
Cc1ccccc1C(C#N)/C(=N/NC(=O)c1cc2ccccc2cc1O)C(=O)Nc1cccc(Cl)c1 (centres undefined)	7.85 µM (inactive)	18 µM (inactive)	4.36 µM (inactive)	18.4 µM (inactive)	22.4	26.4 µM (inactive)	20.5 µM (inactive)	18.6 µM (inactive)	30.8 µM (inactive)	12.4 µM (inactive)	28.7 µM (inactive)	20.9 µM (inactive)	–	22.5 µM (inactive)	41.8 µM (inactive)	7.85 µM (inactive)	45.7 µM (inactive)
COC(=O)CCC(=O)CC(=O)C(=O)Nc1c(Cl)cc([N+](=O)[O-])cc1Cl	> 100 µM (inactive)	> 100 µM (inactive)	57.3 µM (inactive)	65.6 µM (inactive)	55.6	38.7 µM (inactive)	> 100 µM (inactive)	> 100 µM (inactive)	> 100 µM (inactive)	> 100 µM (inactive)	> 100 µM (inactive)	45.3 µM (inactive)	> 100 µM (inactive)	> 100 µM (inactive)	> 100 µM (inactive)	–	> 100 µM (inactive)
Nc1nc2c(ncn2CCCC(c2ccccc2)P(=O)(O)O)c(=O)[nH]1 (centres undefined)	> 100 µM (inactive)	> 100 µM (inactive)	> 100 µM (inactive)	> 100 µM (inactive)	> 100	91.8 µM (inactive)	> 100 µM (inactive)	> 100 µM (inactive)	> 100 µM (inactive)	> 100 µM (inactive)	> 100 µM (inactive)	> 100 µM (inactive)	–	> 100 µM (inactive)	> 100 µM (inactive)	> 100 µM (inactive)	> 100 µM (inactive)
O=C1C(N2C(=O)c3ccccc3C2=O)CN1C(COCc1ccccc1)c1ccc(OCc2ccccc2)cc1 (centres undefined)	> 100 µM (inactive)	> 100 µM (inactive)	> 100 µM (inactive)	> 100 µM (inactive)	> 100	> 100 µM (inactive)	> 100 µM (inactive)	> 100 µM (inactive)	> 100 µM (inactive)	> 100 µM (inactive)	> 100 µM (inactive)	> 100 µM (inactive)	> 100 µM (inactive)	–	> 100 µM (inactive)	> 100 µM (inactive)	> 100 µM (inactive)
COc1ccc(-c2nc3c(nc2-c2ccc(OC)cc2)N(C)S(=O)(=O)N=C3N)cc1	16.9 µM (inactive)	27 µM (inactive)	23.1 µM (inactive)	33.3 µM (inactive)	32.4	13.6 µM (inactive)	27.3 µM (inactive)	34.4 µM (inactive)	22.7 µM (inactive)	28.7 µM (inactive)	22.8 µM (inactive)	9.59 µM (inactive)	10.9 µM (inactive)	20.5 µM (inactive)	24.6 µM (inactive)	28.8 µM (inactive)	28.1 µM (inactive)
